In patent US8785445B2 (Array BioPharma Inc., priority 2008, dated 2014):

These compounds were tested against T1, human DP2 (Homo sapiens, UniProt Q9Y5Y4) (assay: DP-2 binding inhibition assay (3H-PGD2, membranes of DP2-expressing K562 cells)). Settings: 0.1% BSA, read-out: EC50 (nM) 0.1% BSA.
T1 construct: expressed in transfected cells; membranes prepared
T1 sequence (Q9Y5Y4 1-395): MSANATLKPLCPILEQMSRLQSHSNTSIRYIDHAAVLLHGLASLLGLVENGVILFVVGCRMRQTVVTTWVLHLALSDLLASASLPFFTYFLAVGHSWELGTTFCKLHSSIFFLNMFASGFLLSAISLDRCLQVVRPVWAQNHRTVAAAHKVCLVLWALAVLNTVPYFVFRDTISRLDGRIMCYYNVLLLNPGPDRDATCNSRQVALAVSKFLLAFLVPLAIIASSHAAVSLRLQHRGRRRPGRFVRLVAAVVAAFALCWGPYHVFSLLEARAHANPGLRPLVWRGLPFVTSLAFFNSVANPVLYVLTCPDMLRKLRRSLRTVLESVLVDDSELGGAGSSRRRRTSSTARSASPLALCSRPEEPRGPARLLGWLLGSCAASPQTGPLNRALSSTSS
Method: The coding sequence of human DP2 was introduced into the human Leukemic cell line K562 by electroporation and stable clones expressing DP2 were obtained by limiting dilution followed by cell surface staining with a rat monoclonal antibody specific for human DP2. Membranes were prepared from one of these DP2 expressing clones and used to determine the ability of the compounds of the present invention to inhibit binding of prostaglandin D2 (PGD2) to its receptor DP2 in the presence of one or more of the following serum protein concentrations, 0.1% BSA, 1% HSA or 4% HSA, by the following procedure. […] After incubation for 60 minutes at room temperature, the assay was transferred to a filtration plate (#MAFB; Millipore Corporation, Bedford, Mass.), and washed three times with binding buffer. Radioactivity was measured by a scintillation counter (TopCount; PerkinElmer Life Sciences, Boston, Mass.). Nonspecific binding was determined by incubations in the presence of 1 μM unlabeled PGD2 or 5 μM of a known DP2 antagonist. IC50 values for inhibition of binding were determined for each compound tested from the inflexion point of a standard 4-parameter logistical curve fitted to the values obtained.

First: O=C(Nc1ccc(C(F)(F)F)nc1)c1ccc(Oc2cc3c(cc2Cl)C(C(=O)O)CCO3)cc1 (stereo not shown) [Example 29, 6-Chloro-7-(4-(6-(trifluoromethyl)pyridin-3-ylcarbamoyl)phenoxy)chroman-4-carboxylic acid]
Second: O=C(Nc1ccc2cc(Cl)ccc2n1)c1ccc(Oc2cc3c(cc2Cl)C(C(=O)O)CCO3)cc1 (stereo not shown) [Example 30, 6-Chloro-7-(4-(6-chloroquinolin-2-ylcarbamoyl)phenoxy)chroman-4-carboxylic acid]
The EC50 of the first is 2.7-fold higher: 34.7 nM for the first, 13 nM for the second.

Same assay, conditions: 1% HSA, read-out: EC50 (nM) 1% HSA

Going from `O=C(Nc1ccc(C(F)(F)F)nc1)c1ccc(Oc2cc3c(cc2Cl)C(C(=O)O)CCO3)cc1` (stereo not shown) [Example 29, 6-Chloro-7-(4-(6-(trifluoromethyl)pyridin-3-ylcarbamoyl)phenoxy)chroman-4-carboxylic acid] to `O=C(Nc1ccc2cc(Cl)ccc2n1)c1ccc(Oc2cc3c(cc2Cl)C(C(=O)O)CCO3)cc1` (stereo not shown) [Example 30, 6-Chloro-7-(4-(6-chloroquinolin-2-ylcarbamoyl)phenoxy)chroman-4-carboxylic acid], the EC50 falls from 661 nM to 120 nM (5.5-fold).

Same assay, conditions: 4% HSA, read-out: EC50 (nM) 4% HSA

Going from `O=C(Nc1ccc2cccc(Cl)c2n1)c1ccc(Oc2cc3c(cc2Cl)C(C(=O)O)CCO3)cc1` (stereo not shown) [Example 25, 6-Chloro-7-(4-(8-chloroquinolin-2-ylcarbamoyl)phenoxy)chroman-4-carboxylic acid] to `O=C(Nc1ccc2cc(Cl)ccc2n1)c1ccc(Oc2cc3c(cc2Cl)C(C(=O)O)CCO3)cc1` (stereo not shown) [Example 30, 6-Chloro-7-(4-(6-chloroquinolin-2-ylcarbamoyl)phenoxy)chroman-4-carboxylic acid], the EC50 falls from 5980 nM to 134 nM (45-fold). The second is the more potent here.

First: Cc1cc2ccccc2nc1NC(=O)c1ccc(Oc2cc3c(cc2Cl)C(C(=O)O)CCO3)cc1 (stereo not shown) [Example 26, 6-Chloro-7-(4-(3-methylquinolin-2-ylcarbamoyl)phenoxy)chroman-4-carboxylic acid]
Second: O=C(Nc1cccc(-c2ccccc2Cl)n1)c1ccc(Oc2cc3c(cc2Cl)C(C(=O)O)CCO3)cc1 (stereo not shown) [Example 56, 6-Chloro-7-(4-(6-(2-chlorophenyl)pyridin-2-ylcarbamoyl)phenoxy)chroman-4-carboxylic acid]
The EC50 of the first is 3.3-fold higher: 1910 nM for the first, 582 nM for the second.

`O=C(Nc1cccc(-c2ccccc2)n1)c1ccc(Oc2cc3c(cc2Cl)C(C(=O)O)CCO3)cc1` (stereo not shown) [Example 27, 6-chloro-7-(4-(6-phenylpyridin-2-ylcarbamoyl)phenoxy)chroman-4-carboxylic acid] and `O=C(Nc1cccc(-c2cccc(Cl)c2)n1)c1ccc(Oc2cc3c(cc2Cl)C(C(=O)O)CCO3)cc1` (stereo not shown) [Example 34, 6-Chloro-7-(4-(6-(3-chlorophenyl)pyridin-2-ylcarbamoyl)phenoxy)chroman-4-carboxylic acid] are within 1.5-fold of each other in EC50: 173 nM for the first, 241 nM for the second.

Going from `O=C(Nc1cccc(C(F)(F)F)n1)c1ccc(Oc2cc3c(cc2Cl)C(C(=O)O)CCO3)cc1` (stereo not shown) [Example 28, 6-Chloro-7-(4-(6-(trifluoromethyl)pyridin-2-ylcarbamoyl)phenoxy)chroman-4-carboxylic acid] to `O=C(Nc1ccc(C(F)(F)F)nc1)c1ccc(Oc2cc3c(cc2Cl)C(C(=O)O)CCO3)cc1` (stereo not shown) [Example 29, 6-Chloro-7-(4-(6-(trifluoromethyl)pyridin-3-ylcarbamoyl)phenoxy)chroman-4-carboxylic acid], the EC50 falls from 187 nM to 49.5 nM (3.8-fold).

Going from `O=C(Nc1cc(C(F)(F)F)ccn1)c1ccc(Oc2cc3c(cc2Cl)C(C(=O)O)CCO3)cc1` (stereo not shown) [Example 31, 6-Chloro-7-(4-(4-(trifluoromethyl)pyridin-2-ylcarbamoyl)phenoxy)chroman-4-carboxylic acid] to `O=C(Nc1ccc(-c2ccc(C(F)(F)F)cc2Cl)nn1)c1ccc(Oc2cc3c(cc2Cl)C(C(=O)O)CCO3)cc1` (stereo not shown) [Example 59, Sodium 6-chloro-7-(4-(6-(2-chloro-4-(trifluoromethyl)phenyl)pyridazin-3-ylcarbamoyl)phenoxy)chroman-4-carboxylate], the EC50 falls from 1730 nM to 283 nM (6.1-fold).

Going from `O=C(Nc1cncc(-c2ccccc2)n1)c1ccc(Oc2cc3c(cc2Cl)C(C(=O)O)CCO3)cc1` (stereo not shown) [Example 32, 6-Chloro-7-(4-(6-phenylpyrazin-2-ylcarbamoyl)phenoxy)chroman-4-carboxylic acid] to `O=C(Nc1cccc(-c2ccc(Cl)cc2)n1)c1ccc(Oc2cc3c(cc2Cl)C(C(=O)O)CCO3)cc1` (stereo not shown) [Example 33, 6-Chloro-7-(4-(6-(4-chlorophenyl)pyridin-2-ylcarbamoyl)phenoxy)chroman-4-carboxylic acid], the EC50 falls from 401 nM to 30 nM (13-fold).

`Cc1cccc(-c2cccc(NC(=O)c3ccc(Oc4cc5c(cc4C#N)C(C(=O)O)CCO5)cc3)n2)c1C` (stereo not shown) [Example 40, 6-Cyano-7-(4-(6-(2,3-dimethylphenyl)pyridin-2-ylcarbamoyl)-phenoxy)-chroman-4-carboxylic acid] and `N#Cc1cc2c(cc1Oc1ccc(C(=O)Nc3cccc(-c4ccc(Cl)cc4Cl)n3)cc1)OCCC2C(=O)O` (stereo not shown) [Example 49, 6-Cyano-7-(4-(6-(2,4-dichlorophenyl)pyridin-2-ylcarbamoyl)phenoxy)chroman-4-carboxylic acid] are within 1.5-fold of each other in EC50: 120 nM for the first, 87.3 nM for the second.

`N#Cc1cc2c(cc1Oc1ccc(C(=O)Nc3cccc(-c4cccc(C(F)(F)F)c4)n3)cc1)OCCC2C(=O)O` (stereo not shown) [Example 41, 6-Cyano-7-(4-(6-(3-(trifluoromethyl)phenyl)pyridin-2-ylcarbamoyl)-phenoxy)chroman-4-carboxylic acid] and `N#Cc1cc2c(cc1Oc1ccc(C(=O)Nc3cccc(-c4ccc(C(F)(F)F)cc4)n3)cc1)OCCC2C(=O)O` (stereo not shown) [Example 42, 6-Cyano-7-(4-(6-(4-(trifluoromethyl)phenyl)pyridin-2-ylcarbamoyl)-phenoxy)chroman-4-carboxylic acid] are within 1.5-fold of each other in EC50: 50.8 nM for the first, 36.1 nM for the second.

Going from `N#Cc1cc2c(cc1Oc1ccc(C(=O)Nc3cccc(-c4ccc5c(c4)CCO5)n3)cc1)OCCC2C(=O)O` (stereo not shown) [Example 43, 6-Cyano-7-(4-(6-(2,3-dihydrobenzofuran-5-yl)pyridin-2-ylcarbamoyl)-phenoxy)chroman-4-carboxylic acid] to `N#Cc1cc2c(cc1Oc1ccc(C(=O)Nc3cccc(-c4cccc(Cl)c4)n3)cc1)OCCC2C(=O)O` (stereo not shown) [Example 50, 7-(4-(6-(3-Chlorophenyl)pyridin-2-ylcarbamoyl)phenoxy)-6-cyanochroman-4-carboxylic acid], the EC50 falls from 291 nM to 135 nM (2.2-fold).

Compared with `O=C(Nc1ccc(F)c(-c2ccc(Cl)cc2)n1)c1ccc(Oc2cc3c(cc2Cl)C(C(=O)O)CCO3)cc1` (stereo not shown) [Example 44, Sodium 6-Chloro-7-(4-(6-(4-chlorophenyl)-5-fluoropyridin-2-ylcarbamoyl)phenoxy)chroman-4-carboxylate], `Cc1ccc(-c2cccc(NC(=O)c3ccc(Oc4cc5c(cc4Cl)C(C(=O)O)CCO5)cc3)n2)cc1` (stereo not shown) [Example 57, 6-Chloro-7-(4-(6-p-tolylpyridin-2-ylcarbamoyl)phenoxy)chroman-4-carboxylic acid] is 130-fold lower in EC50: 5000 nM for the first, 39.4 nM for the second. The second is the more potent here.

`N#Cc1cc2c(cc1Oc1ccc(C(=O)Nc3cccc(-c4ccc(Cl)cc4)n3)cc1)OCCC2C(=O)O` (stereo not shown) [Example 51, 7-(4-(6-(4-Chlorophenyl)pyridin-2-ylcarbamoyl)phenoxy)-6-cyanochroman-4-carboxylic acid] and `COc1ccc(-c2cccc(NC(=O)c3ccc(Oc4cc5c(cc4Cl)C(C(=O)O)CCO5)cc3)n2)cc1` (stereo not shown) [Example 58, 6-Chloro-7-(4-(6-(4-methoxyphenyl)pyridin-2-ylcarbamoyl)phenoxy)chroman-4-carboxylic acid] are within 1.5-fold of each other in EC50: 51.3 nM for the first, 67 nM for the second.

`O=C(Nc1cccc(-c2ccc(Cl)c(Cl)c2)n1)c1ccc(Oc2cc3c(cc2Cl)C(C(=O)O)CCO3)cc1` (stereo not shown) [Example 52, 6-Chloro-7-(4-(6-(3,4-dichlorophenyl)pyridin-2-ylcarbamoyl)phenoxy)chroman-4-carboxylic acid] and `O=C(Nc1cccc(-c2ccc(Cl)c(C(F)(F)F)c2)n1)c1ccc(Oc2cc3c(cc2Cl)C(C(=O)O)CCO3)cc1` (stereo not shown) [Example 53, 6-Chloro-7-(4-(6-(4-chloro-3-(trifluoromethyl)phenyl)pyridin-2-ylcarbamoyl)phenoxy)chroman-4-carboxylic acid] are within 1.5-fold of each other in EC50: 50.8 nM for the first, 40.9 nM for the second.

`COc1ccc(-c2cccc(NC(=O)c3ccc(Oc4cc5c(cc4Cl)C(C(=O)O)CCO5)cc3)n2)cn1` (stereo not shown) [Example 54, Sodium 6-chloro-7-(4-(6′-methoxy-2,3′-bipyridin-6-ylcarbamoyl)phenoxy)chroman-4-carboxylate] and `COc1ccc(-c2cccc(NC(=O)c3ccc(Oc4cc5c(cc4Cl)C(C(=O)O)CCO5)cc3)n2)c(OC)n1` (stereo not shown) [Example 55, Sodium 6-chloro-7-(4-(2′,6′-dimethoxy-2,3′-bipyridin-6-ylcarbamoyl)phenoxy)chroman-4-carboxylate] are within 1.5-fold of each other in EC50: 337 nM for the first, 258 nM for the second.

First: O=C(Nc1ccc(-c2ccc(C(F)(F)F)c(Cl)c2)nn1)c1ccc(Oc2cc3c(cc2Cl)C(C(=O)O)CCO3)cc1 (stereo not shown) [Example 60, Sodium 6-chloro-7-(4-(6-(3-chloro-4-(trifluoromethyl)phenyl)pyridazin-3-ylcarbamoyl)phenoxy)chroman-4-carboxylate]
Second: Cc1ccc(-c2ccc(NC(=O)c3ccc(Oc4cc5c(cc4Cl)C(C(=O)O)CCO5)cc3)nn2)cc1 (stereo not shown) [Example 62, Sodium 6-chloro-7-(4-(6-p-tolylpyridazin-3-ylcarbamoyl)phenoxy)chroman-4-carboxylate]
The EC50 of the first is 5.2-fold lower: 63 nM for the first, 327 nM for the second.

Compared with `O=C(Nc1cnc(-c2ccc(C(F)(F)F)cc2)cn1)c1ccc(Oc2cc3c(cc2Cl)C(C(=O)O)CCO3)cc1` (stereo not shown) [Example 61, Sodium 6-chloro-7-(4-(5-(4-(trifluoromethyl)phenyl)pyrazin-2-ylcarbamoyl)phenoxy)chroman-4-carboxylate], `COc1ccc(-c2ccc(NC(=O)c3ccc(Oc4cc5c(cc4Cl)C(C(=O)O)CCO5)cc3)nn2)cc1` (stereo not shown) [Example 63, Sodium 6-chloro-7-(4-(6-(4-methoxyphenyl)pyridazin-3-ylcarbamoyl)phenoxy)chroman-4-carboxylate] is 2.7-fold higher in EC50: 539 nM for the first, 1460 nM for the second. The first is the more potent here.
